Assay: xn = mol fraction of the nth substance listed

Nc1cccc(Cl)c1 + CCCCCCCCCCO
viscosity [mPa·s], 101 kPa
Conditions	x1 = 0.1699	x1 = 0.3153	x1 = 0.4411	x1 = 0.5511	x1 = 0.6481	x1 = 0.7342	x1 = 0.8112	x1 = 0.8805	x1 = 0.9431
303.15 K	8.772	7.947	7.247	6.641	6.113	5.648	5.238	4.871	4.546
308.15 K	7.358	6.71	6.16	5.687	5.274	4.912	4.593	4.31	4.061
313.15 K	6.213	5.693	5.254	4.878	4.549	4.262	4.01	3.788	3.596
318.15 K	5.338	4.899	4.532	4.217	3.943	3.704	3.494	3.311	3.153

CC12CCC(CC1)C(C)(C)O2 + Cc1ccc(O)cc1
viscosity [mPa·s], 101 kPa
Conditions	x1 = 0.065	x1 = 0.1353	x1 = 0.2115	x1 = 0.2943	x1 = 0.3849	x1 = 0.4841	x1 = 0.5935	x1 = 0.7145	x1 = 0.8492
303.15 K	10.05	10.4	10.3	9.855	8.969	7.588	6	4.552	3.36
308.15 K	8.061	8.368	8.359	8.056	7.332	6.325	5.03	3.799	2.854
313.15 K	6.612	6.841	6.808	6.617	6.12	5.364	4.313	3.244	2.467

ClCCCCCl + CCC(C)O
101 kPa
Conditions	viscosity [mPa·s]
298.15 K, x1 = 0.1012	2.118
298.15 K, x1 = 0.2021	1.633
298.15 K, x1 = 0.2996	1.408
298.15 K, x1 = 0.4004	1.281
298.15 K, x1 = 0.4967	1.199
298.15 K, x1 = 0.5999	1.158
298.15 K, x1 = 0.7024	1.143
298.15 K, x1 = 0.7987	1.151
298.15 K, x1 = 0.899	1.199
313.15 K, x1 = 0.1002	1.369
313.15 K, x1 = 0.2041	1.123
313.15 K, x1 = 0.3125	0.9913
313.15 K, x1 = 0.3996	0.9298
313.15 K, x1 = 0.5046	0.8882
313.15 K, x1 = 0.6034	0.8716
313.15 K, x1 = 0.7008	0.8721
313.15 K, x1 = 0.8052	0.8932
313.15 K, x1 = 0.9001	0.9458

CC12CCC(CC1)C(C)(C)O2 + COC(C)(C)C
298.15 K, 101.33 kPa
Conditions	viscosity [mPa·s]
x2 = 0.039	2.365
x2 = 0.1663	1.833
x2 = 0.2659	1.491
x2 = 0.379	1.188
x2 = 0.4562	1.02
x2 = 0.5768	0.7958
x2 = 0.6621	0.6632
x2 = 0.7385	0.5702
x2 = 0.8408	0.4604
x2 = 0.902	0.4049
x2 = 0.9701	0.3547

OC[C@@H](O)[C@@H](O)CO + O
viscosity [mPa·s], 101.3 kPa
Conditions	x1 = 0.003586	x1 = 0.007154	x1 = 0.01069	x1 = 0.01421	x1 = 0.0177	x1 = 0.02631	x1 = 0.03478	x1 = 0.0431	x1 = 0.05128
293.15 K	–	–	–	1.25	–	1.53	1.78	2.04	2.32
303.15 K	0.84	0.89	0.95	0.99	1.07	1.18	1.36	1.54	1.73
313.15 K	–	0.71	0.76	0.79	0.85	0.94	1.05	1.18	1.33
323.15 K	0.57	0.6	0.64	0.66	0.71	0.77	0.87	0.95	1.06

From the CheMixHub viscosity set
